System: IL-6 stimulated pSTAT3 in CD3+ T cells
Assay: Inhibition of IL-6 stimulated pSTAT3 in CD3+ T cells
Format: cell-based, human
Text: Assay 10: Cellular JAK Potency Assay: Inhibition of IL-6 Stimulated pSTAT3 in CD3+ T Cells
A protocol analogous to that of Assay 9 was used to determine the potency of the test compound for inhibition of interleuken-6 (IL-6) stimulated STAT3 phosphorylation. An Alexa Fluor 647 conjugated anti-pSTAT3 antibody (pY705, Clone 4/P, BD Biosciences) was used to detect STAT3 phosphorylation.

Compound | inhibition of IL-6 signaling (in words)
CCc1cc(O)c(F)cc1-c1ccc2c(-c3nc4c([nH]3)CN(C(C)C)[C@H](C(=O)N3CC[C@H](N(C)C)C3)C4)n[nH]c2c1 [Example 3] | inhibit IL-6 signaling
CCCN1Cc2[nH]c(-c3n[nH]c4cc(-c5cc(F)c(O)cc5CC)ccc34)nc2C[C@H]1C(=O)N1C[C@@H]2C[C@H]1CN2C [Example 1, ((S)-2-(6-(2-ethyl-5-fluoro-4-hydroxyphenyl)-1H-indazol-3-yl)-5-propyl-4,5,6,7-tetrahydro-3H-imidazo[4,5-c]pyridin-6-yl)((1S,4S)-5-methyl-2,5-diazabicyclo-[2.2.1]heptan-2-yl)methanone] | inhibit IL-6 signaling

— patent publication US10519153B2, “Fused imidazo-piperidine JAK inhibitors” (THERAVANCE BIOPHARMA R&D IP, LLC, priority 2017, dated 2019)
